One test has as its target T1, CTSL (Homo sapiens, UniProt P07711).
T1 construct: made in house
In words: Kinetic evaluation of recombinant cathepsin inhibition, fluorogenic substrate Z-RR-AMC. Format: biochemical. On the procedure:
Cathepsin (0.4 nM, CatK) or 5 nM (CatS, CatB, and CatL) were each mixed with inhibitors before adding the fluorogenic substrate. The proteases were then reacted with their substrates, Z-RR-AMC (CatL) or Z-FR-AMC (CatS, CatB, and CatK), for 30 min at 37 °C in the phosphate buffer (100 mM Na2HPO4/NaH2PO4, 50 mM NaCl, 5 mM DTT, 0.1% PEG-6000, at pH 6). Reactions were done in 96-well black flat-bottom microplates (Greiner, Germany); fluorescence (Ex/Em 370 and 460 nm) was measured by a Tecan INFINITE M1000 pro plate reader (Tecan, Switzerland) in the presence of inhibitors or vehicle. For irreversible inhibitors, reaction data were analyzed by using the one-phase association formula in GraphPad Prism 9 software: Y = Y0 + (plateau – Y0) × (1 – exp(−K × X)), where Y0 and Y denote the fluorescence signals at times 0 and t, respectively, K represents the observed reaction rate kobs, and X signifies the […]. The inactivation rates at each inhibitor concentration were determined by subtracting the inactivation observed in the control sample: kobs – kctrl. The maximum inactivation rate (kinact) was derived as the asymptote from the equation Y = kinact × X/(Ki^app + X), where X represents the inhibitor concentration, Y is the observed inactivation rate for each X, and Ki^app is the apparent inhibition constant. Ki values were derived from IC50 or Ki^app using the equations Ki = Ki^app/(1 + […]) and IC50 = E0/2 + Ki^app, where Km represents the Michaelis–Menten constant, S denotes substrate concentration, and E0 indicates cathepsin concentration. The maximum inhibitor dose in the experiment was 50 μM. Measurements were conducted in multiple independent duplicates. Average values are listed.

The target in test [1] is T2, endogenous cathepsin K in the nucleus of human osteoclast (Homo sapiens, UniProt P43235).
T2 construct: endogenous in cells; host or cells: primary human osteoclasts differentiated from blood monocytes with M-CSF and RANKL
T2 sequence (P43235 115-329): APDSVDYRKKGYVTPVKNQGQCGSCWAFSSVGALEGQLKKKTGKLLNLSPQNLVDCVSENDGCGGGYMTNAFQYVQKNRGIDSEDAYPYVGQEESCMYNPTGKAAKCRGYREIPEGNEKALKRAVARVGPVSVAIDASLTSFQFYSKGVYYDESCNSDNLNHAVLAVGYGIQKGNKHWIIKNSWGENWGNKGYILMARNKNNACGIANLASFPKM
As to the kind of experiment: Fluorescence microscopy of nuclear CTSK inhibition (GD32 probe). Format: cell-based. The note with it: 3 μM, 2 h, then GD32 8 h. The source says:
We have generated inhibitors that block nuclear CTSK activity for the first time. […] CTSK activity labeled by a specific fluorescence ABP, GD32, was detected in the nucleus and nucleoli of osteoclasts, as reported by Dey et al.[19] The CTSK nuclear signal was completely eliminated in the presence of the inhibitors (Figure 9). These inhibitors can facilitate studying CTSK nuclear activity.
Figure 9 Detection of inhibition of endogenous cathepsin K in the nucleus of human osteoclast by fluorescence microscopy. (a) Osteoclast cells were treated with GD20 or GD38 inhibitors [3 μM] or DMSO vehicle in culture medium for 2 h, followed by incubation with GD32 for 8 h, as shown in Figure 8a. Cells were then fixed and stained with DAPI (nucleus), and Z stack images were captured by confocal microscopy. The white arrows indicate the nucleus. […] Red fluorescence is CTSK activity labeled by the ABP (GD32) and blue fluorescence (DAPI). (b) Microscopy image analysis software Imaris 10.0.1 was used to produce a three-dimensional (3D) surface rendering image of a cell nucleus (transparent blue) and CTSK inside it (opaque red) on top of the original image (blue, DAPI; red, GD32). The thresholds for the surfaces were chosen to emphasize CTSK inside the nucleus. One nucleus for each treatment was chosen from pictures in (a). […]

In another test the test system is human osteoclasts. As to the kind of experiment: Osteoclast differentiation assay on plastic (TRAP). In kind it is cell-based. Conditions: osteoclasts grown on plastic, 7 days. On the procedure:
To assess osteoclast differentiation, 7.5 × 10^4 cells from PBMCs, cells preincubated with M-CSF, were cultured in 96-well plates. After 3 days, medium was replaced with differentiation medium (αMEM; M8042 sigma, 10% FBS, 5% Penstrep and L-Glu, BI) supplemented with 25 ng/mL M-CSF and 25 ng/mL RANKL (R&D systems, 390-TN) and different inhibitors: GD20 (1 or 5 μM), ODN (1 or 5 μM), or vehicle. The differentiation medium was changed after 2 and 5 days. Cells were fixed on the 7th day with 4% PFA for 10 min at room temperature, they were washed three times with PBS, and then stained using a TRAP staining kit (Sigma-Aldrich, 387A-1KT) according to the manufacturer’s protocol with additional staining of the nuclei with DAPI. Osteoclast parameters were obtained by analysis of three wells from each- treatment. […] The total osteoclast surface area was determined using ImageJ software by manually tracing individual osteoclasts perimeters.
Figure S7. Identification of fluorescent band identity. […] G els were scanned for fluorescence and then underwent immunoblotting with different cathepsin -specific antibodies . […]
Fluorescence Immunoblot s.ch. = single chain, […]
Quantification of the total number of osteoclasts, and c) osteoclast-cell area in each treatment […]
Figure S9. […] Cathepsin activity was detected by labeling intact osteoclast with GB123, a pan-cathepsin activity-based probe. […]

pKi: −log10 of the molar value. Bounds are passed on as bounds.

T1 sequence (P07711 114-333): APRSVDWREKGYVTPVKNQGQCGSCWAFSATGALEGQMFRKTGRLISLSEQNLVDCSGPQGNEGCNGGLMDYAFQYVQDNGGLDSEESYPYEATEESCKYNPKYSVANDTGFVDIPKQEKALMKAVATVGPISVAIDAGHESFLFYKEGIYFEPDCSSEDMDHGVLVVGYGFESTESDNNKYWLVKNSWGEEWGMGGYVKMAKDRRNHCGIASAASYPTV

A word on the pKi: it is the Ki on a negative log10 scale, so that one unit is a factor of ten. One may read the kinact as the rate constant of inactivation at saturating inhibitor. Take `CC(C)C[C@H](N[C@@H](c1ccc(-c2ccc(S(C)(=O)=O)cc2)cc1)C(F)(F)F)C(=O)NCC(=O)COC(=O)[C@@H]1CCCN1C(=O)[C@H](CCC(N)=O)NC(=O)OCC1c2ccccc2-c2ccccc21` [GD38]: the “type of inhibition, CTSL” value on CTSL was “irreversible”. Moreover, the negative-log Ki (pKi) at CTSL (irreversible inhibitor) was < 4.30. Moreover, the maximal inactivation rate constant (kinact) at CTSL (read-out: kinact (at 50 μM), CTSL) is 0.0045 s⁻¹. Besides, the “nuclear CTSK activity labeled by GD32” value in test [1] is on record as “block CTSK activity in the nucleolus”.

In the case of `CC(C)C[C@H](N[C@@H](c1ccc(-c2ccc(S(C)(=O)=O)cc2)cc1)C(F)(F)F)C(=O)NCC(=O)COC(=O)[C@@H]1CCCN1C(=O)[C@H](CC(C)C)NC(=O)OCC1c2ccccc2-c2ccccc21` [GD20], at CTSL (maximum inhibitor dose 50 μM), the pKi was < 4.30. The total osteoclast area result in the test on human osteoclasts is listed as “slightly decreased”. Further, the “nuclear CTSK activity labeled by GD32” value in test [1] is “block CTSK activity in the nucleolus”.

These data come from publication PMC11938014, “Development and Application of Small Molecule–Peptide Conjugates as Cathepsin K-Specific Covalent Irreversible Inhibitors in Human Osteoclast and Lung Cancer” (JACS Au, 2025).
